The text below walks through data of patent publication US20220365085A1, “B[…], THE USE OF B[…], SENSORS […] WITH THE SAID B[…] AND THE DETECTION METHOD OF SARS-COV-2 VIRUS” (SENSDX SPÓLKA AKCYJNA, priority 2019, published 2022).

In this assay the target is WHN-N protein (SARS-CoV-2 nucleocapsid N protein) (Severe acute respiratory syndrome coronavirus 2, UniProt P0DTC9). The class given is binding.

Numbered stars: 1 amine (or outer) side, 2 acyl side, 3 side chain; on linkers, the order of the positions; unused ones are H or OH. Square brackets hold non-standard residues; d marks the D form. Peptide text beside a SMILES is read from it. * marks the point of attachment. ξ: configuration not given here. X1 = O=C([C@@H](N[*:1])c1cnc[nH]1)[*:2]; Ile(3ξ) = CCC(C)[C@H](N)C(=O)O; Lauroyl = CCCCCCCCCCCC(=O)*

As for `CCCCCCCCCCCC(=O)N[C@H](C(=O)N1CCC[C@H]1C(=O)N[C@H](C(=O)N[C@@H](Cc1ccc(O)cc1)C(=O)N[C@@H](Cc1c[nH]cn1)C(=O)N[C@@H](CCCCN)C(=O)N[C@@H](CC(C)C)C(N)=O)C(C)CC)[C@@H](C)O` (some centres unmarked) [11-KOD7, 11-Mrcpt-TPIYHKL-NH2] (Lauroyl-TP[Ile(3ξ)]YHKL-NH2), the “specificity of the peptide sequence” value was “specific for SARS-CoV-2 virus”. Regarding `CCCCCCCCCCCC(=O)N[C@H](C(=O)N[C@H](C(=O)N[C@@H](CO)C(=O)N[C@@H](CC(N)=O)C(=O)N[C@@H](Cc1c[nH]cn1)C(=O)N[C@@H](CO)C(=O)N[C@@H](Cc1c[nH]cn1)C(=O)N[C@@H](Cc1c[nH]cn1)C(=O)N[C@@H](Cc1c[nH]cn1)C(=O)N[C@@H](CC(=O)O)C(=O)N[C@H](C(=O)N[C@@H](CC(C)C)C(N)=O)C(C)CC)C(C)CC)c1cnc[nH]1` (stereo partly drawn) [11-KOD1, 11-Mrcpt-HISNHSHHHDIL-NH2] (Lauroyl-[X1][Ile(3ξ)]SNHSHHHD[Ile(3ξ)]L-NH2), the “specificity of the peptide sequence” value is “specific for the WHN-N protein”.
